The values that follow come from paper PMC6466617 (The AAPS journal, 2019).

Usually inhibition stands for the change of the read-out against control, counted positive when it falls.

This assay addresses T1, monocarboxylate transporter 1 (MCT1) (Mus musculus, UniProt P53986).
T1 sequence (P53986 1-493): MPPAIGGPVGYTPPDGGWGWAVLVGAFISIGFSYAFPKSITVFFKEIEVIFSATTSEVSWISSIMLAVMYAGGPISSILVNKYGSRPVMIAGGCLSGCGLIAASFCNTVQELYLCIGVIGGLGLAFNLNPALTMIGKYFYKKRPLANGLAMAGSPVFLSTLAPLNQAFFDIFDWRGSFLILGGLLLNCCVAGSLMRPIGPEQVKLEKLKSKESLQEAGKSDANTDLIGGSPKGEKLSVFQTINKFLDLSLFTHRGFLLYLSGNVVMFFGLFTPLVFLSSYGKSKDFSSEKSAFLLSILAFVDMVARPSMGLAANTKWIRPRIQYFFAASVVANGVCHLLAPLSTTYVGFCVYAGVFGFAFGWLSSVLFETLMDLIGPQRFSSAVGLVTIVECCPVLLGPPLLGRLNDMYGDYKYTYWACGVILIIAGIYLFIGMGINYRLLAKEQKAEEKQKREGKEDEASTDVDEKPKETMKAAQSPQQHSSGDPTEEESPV
The assay is described as follows: inhibition of [3H]-L-lactate uptake in 4T1 cells at […], pH […], with washout. Format: cell-based. Conditions: 4T1, read-out: % inhibition at 200 nM.

In the case of `Cc1[nH]nc(C(F)(F)F)c1Cc1sc2c(c1C(=O)N1C[C@](C)(O)CO1)c(=O)n(C)c(=O)n2C(C)C` [AZD3965], the inhibition at 0.2 µM amounted to 83.5%.
